Calls of active or inactive are those of the source.
Experiments:
[1] = molecular target: 5-hydroxytryptamine receptor 2A (Mus musculus, UniProt P35363); assay type: functional, cell-based;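 further: CHO-K1 cells with tagged receptor and beta-arrestin; agonist potency measured as compound-induced activation of the receptor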
Mu-type opioid receptor = Mu-type opioid receptor (Homo sapiens, UniProt P35372); assay type: functional, cell-based;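 further: U2OS cells with beta-arrestin recruitment to OPRM1 by beta-gal complementation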
[2] = off-target signal loss in HeLa-CEM21 co-culture – HeLa F-luc CTL cells, cherry-picked, counter-screen for HIV-1 Env fusion inhibitor project, dose response (AID 652040); assay type: functional, cell-based;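 further: potency for signal decrease marking cytotoxic or nonspecific inhibition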
[3] = HIV-1 AD8 envelope cell-cell fusion blockers – cherry-pick, dose response (AID 652062); assay type: functional, cell-based;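 further: luciferase signal from cell-cell fusion driven by HIV-1 clade B AD8 Env; potency is for inhibitors of fusion seen as a drop in luminescence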
[4] = blockers of HIV-1 envelope-mediated cell-cell fusion – cherry-pick, dose response (AID 652057); assay type: functional, cell-based
[5] = Luminescence Cell-Based Dose Retest to Confirm Inhibitors of Cancer Stem Cells. [Related pubchem assays (depositor defined):AID2717, AID2721]; assay type: functional; conditions: Homo sapiens
Phospholipase A2 = Phospholipase A2 (Homo sapiens, UniProt P04054); assay type: functional;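 further: confirmatory dose-response counterscreen on phospholipase A2, testing hits that came from an ultra-high-throughput screen for ATG4B inhibitors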
Cysteine protease ATG4B = molecular target: T1, Cysteine protease ATG4B (Homo sapiens, UniProt Q9Y4P1); assay type: functional;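 further: Fluorescence-based dose-response confirmation assay measuring inhibition of ATG4B activity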
T1 sequence (Q9Y4P1 whole entry): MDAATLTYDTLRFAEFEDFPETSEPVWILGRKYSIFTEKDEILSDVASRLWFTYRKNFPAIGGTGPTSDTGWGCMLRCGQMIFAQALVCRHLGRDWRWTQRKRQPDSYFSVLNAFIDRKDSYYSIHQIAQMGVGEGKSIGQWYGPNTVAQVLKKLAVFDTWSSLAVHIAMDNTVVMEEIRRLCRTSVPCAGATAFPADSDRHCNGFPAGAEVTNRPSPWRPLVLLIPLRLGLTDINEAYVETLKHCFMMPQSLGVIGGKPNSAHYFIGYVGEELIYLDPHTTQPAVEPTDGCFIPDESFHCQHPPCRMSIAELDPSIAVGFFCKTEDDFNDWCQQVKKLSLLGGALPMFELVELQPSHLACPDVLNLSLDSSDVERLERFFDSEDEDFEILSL

[6] = viability loss in CEM21 cells – cell-based, CellTiter-Glo luminescence, cherry-picked, cytotoxicity control for viral fusion inhibitor project, dose response (AID 652042); assay type: functional;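 further: potency for signal decrease meaning cytotoxicity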
[7] = blockade of melanocortin 4 receptor signaling – cell-based, plate reader, cherry pick, counter-screen for LGR2 antagonist project, dose response (AID 743444); assay type: functional;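 further: transfected HEK 293 cells stimulated with alpha-MSH peptide; potency of inhibitors of the alpha-MSH evoked signal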
[8] = Luminescence Cell-Based Dose Response HTS to Identify Inhibitors of 5'UTR Stem-Loop Driven Prion Protein mRNA Translation in H4 Neuroglioblastoma Cells. [Related pubchem assays: 1827 (Project Summary), 1813 (Primary HTS)]; assay type: functional
[9] = molecular target: T2, Nuclear receptor subfamily 0 group B member 1 (Homo sapiens, UniProt P51843); assay type: functional, cell-based;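 further: HEK293T cells transfected with SF-1 and DAX-1 plus StAR promoter luciferase reporter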
T2 sequence (P51843 whole entry): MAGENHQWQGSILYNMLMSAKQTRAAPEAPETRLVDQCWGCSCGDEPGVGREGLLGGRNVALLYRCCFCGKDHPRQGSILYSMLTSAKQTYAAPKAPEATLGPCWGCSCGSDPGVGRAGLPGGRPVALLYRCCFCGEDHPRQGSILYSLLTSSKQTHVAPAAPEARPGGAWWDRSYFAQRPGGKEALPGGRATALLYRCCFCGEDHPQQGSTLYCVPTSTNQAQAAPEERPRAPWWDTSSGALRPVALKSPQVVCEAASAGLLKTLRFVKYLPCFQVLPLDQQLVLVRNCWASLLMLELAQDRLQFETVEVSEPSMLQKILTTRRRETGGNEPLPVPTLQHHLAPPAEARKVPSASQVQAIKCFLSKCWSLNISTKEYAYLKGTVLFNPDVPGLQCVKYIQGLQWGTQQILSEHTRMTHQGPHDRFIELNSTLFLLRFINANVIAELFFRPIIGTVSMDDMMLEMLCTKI

[10] = alpha-synuclein stem-loop luciferase translation blockers – H4 neuroglioma cells, luminescence, confirmation (AID 1988); assay type: functional, cell-based
HEK293 = assay: EBV LMP1 TES2 canonical NF-kB signalling blockers – cell-based, HEK293, luciferase, cherry-pick, dose response (AID 588343); assay type: functional; conditions: Homo sapiens
[11] = blockers of bursicon-stimulated LGR2 cAMP reporter – cell-based, HEK293, CRE-luciferase reporter, cherry pick, set 2, dose response (AID 743343); assay type: functional;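 further: transfected cells were stimulated with diluted bursicon conditioned medium after compound addition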
cells [12] = assay type: functional, cell-based
[13] = luciferase reporter signal suppression in cells – H4 neuroglioma cells, luminescence, dose response (AID 1990); assay type: functional, cell-based
[14] = blockers of HIV-1 ZM109 envelope-driven cell-cell fusion – HeLa effector, CEM target cells, luciferase, cherry-pick, dose response (AID 652058); assay type: functional, cell-based;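 further: luciferase signal from HIV-1 Env mediated cell-cell fusion of effector and target cells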
[15] = Trypanosoma cruzi growth suppression in host cells – NIH3T3 host cells, beta-gal luminescence, confirmation (AID 2044); assay type: functional, cell-based;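 further: intracellular parasites grown in NIH/3T3 mouse fibroblasts as host cells; luminescent beta-galactosidase reporter signal from transgenic T. cruzi replicating inside host cells; inhibitors lower the luminescence signal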
[16] = NIH3T3 cell viability loss – ATP luminescence, mouse fibroblasts, counter-screen, dose response (AID 2010); assay type: functional, cell-based;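 further: cells exposed to compound for about 90 hours before reading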
Beta-galactosidase = Beta-galactosidase (Escherichia coli, UniProt Q8VNN2); assay: Dose response counterscreen for EBI2 assay utilizing the enzyme, b-galactosidase.; assay type: functional
Beta-lactamase [17] = molecular target: T3, Beta-lactamase (Pseudomonas aeruginosa, UniProt Q79MP6); assay: inhibition of IMP-1 beta-lactamase activity – biochemical, epi-absorbance, selectivity assay for VIM-2 inhibitor project, dose response (AID 1920)
Beta-lactamase [18] = molecular target: T3, Beta-lactamase; assay: […] counterscreen for selective VIM-2 inhibitors: dose response biochemical high throughput screening assay to identify inhibitors of IMP-1 metallo-beta-lactamase.
Beta-lactamase [19] = molecular target: Beta-lactamase (Salmonella choleraesuis (strain SC-B67), UniProt Q5J463); assay: Epi-absorbance-based counterscreen for selective VIM-2 inhibitors: dose response biochemical high throughput screening assay to identify inhibitors of TEM-1 serine-beta-lactamase.
[20] = molecular target: T4, Histone-lysine N-methyltransferase NSD2 (Homo sapiens, UniProt O96028); assay type: biochemical
T4 sequence (O96028 whole entry): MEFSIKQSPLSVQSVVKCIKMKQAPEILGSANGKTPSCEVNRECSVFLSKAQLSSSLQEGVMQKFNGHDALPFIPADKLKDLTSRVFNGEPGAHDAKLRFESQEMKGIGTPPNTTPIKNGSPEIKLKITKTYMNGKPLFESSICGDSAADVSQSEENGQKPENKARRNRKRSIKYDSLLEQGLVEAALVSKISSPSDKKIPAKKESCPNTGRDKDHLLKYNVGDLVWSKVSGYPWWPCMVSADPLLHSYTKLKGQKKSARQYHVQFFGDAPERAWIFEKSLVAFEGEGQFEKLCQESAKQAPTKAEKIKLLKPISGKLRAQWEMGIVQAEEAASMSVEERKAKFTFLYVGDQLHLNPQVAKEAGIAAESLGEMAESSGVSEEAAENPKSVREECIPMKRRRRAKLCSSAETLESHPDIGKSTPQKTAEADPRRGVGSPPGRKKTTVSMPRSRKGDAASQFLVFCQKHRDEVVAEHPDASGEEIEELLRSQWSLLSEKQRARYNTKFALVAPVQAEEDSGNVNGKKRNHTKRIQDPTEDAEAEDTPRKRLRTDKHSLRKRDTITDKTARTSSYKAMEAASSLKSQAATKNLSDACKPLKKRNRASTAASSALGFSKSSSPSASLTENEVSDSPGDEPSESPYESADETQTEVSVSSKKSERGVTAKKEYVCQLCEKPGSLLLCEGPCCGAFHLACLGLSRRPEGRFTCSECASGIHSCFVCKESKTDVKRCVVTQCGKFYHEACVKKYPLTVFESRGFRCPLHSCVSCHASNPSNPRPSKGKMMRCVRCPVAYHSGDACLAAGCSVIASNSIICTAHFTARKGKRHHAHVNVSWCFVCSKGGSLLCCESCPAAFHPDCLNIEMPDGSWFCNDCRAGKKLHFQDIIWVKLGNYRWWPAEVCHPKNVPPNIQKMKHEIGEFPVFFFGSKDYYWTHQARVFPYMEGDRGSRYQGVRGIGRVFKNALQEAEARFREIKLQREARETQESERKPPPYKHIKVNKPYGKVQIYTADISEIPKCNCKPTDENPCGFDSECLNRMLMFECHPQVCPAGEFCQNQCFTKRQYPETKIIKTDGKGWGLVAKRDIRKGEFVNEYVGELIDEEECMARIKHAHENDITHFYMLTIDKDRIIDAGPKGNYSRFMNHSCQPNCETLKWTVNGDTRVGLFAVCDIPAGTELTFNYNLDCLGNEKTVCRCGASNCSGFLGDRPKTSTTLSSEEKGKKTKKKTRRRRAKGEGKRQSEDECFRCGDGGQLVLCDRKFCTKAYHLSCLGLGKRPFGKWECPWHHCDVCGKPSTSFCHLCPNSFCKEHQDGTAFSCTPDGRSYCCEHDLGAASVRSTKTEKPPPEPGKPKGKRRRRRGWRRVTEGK

[21] = molecular target: T5, Sentrin-specific protease 8 (Homo sapiens, UniProt Q96LD8); assay type: functional
T5 sequence (Q96LD8 whole entry): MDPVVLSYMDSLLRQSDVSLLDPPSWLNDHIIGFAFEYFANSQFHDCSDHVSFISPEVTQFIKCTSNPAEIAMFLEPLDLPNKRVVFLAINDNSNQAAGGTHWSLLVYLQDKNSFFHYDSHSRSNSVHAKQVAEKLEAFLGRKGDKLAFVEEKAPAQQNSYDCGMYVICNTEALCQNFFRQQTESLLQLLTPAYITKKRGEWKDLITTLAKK

[22] = molecular target: T5, Sentrin-specific protease 8; assay type: functional; remark: listed apart in the source
cells [23] = assay type: functional, cell-based; remark: listed apart in the source
cells [24] = assay type: functional, cell-based; remark: listed apart in the source
[25] = molecular target: DNA repair and recombination protein RAD54-like (Homo sapiens, UniProt Q92698); assay: RAD54 Holliday junction migration blockers – biochemical, fluorescence, cherry-picked samples, dose series, confirmation (AID 651657); assay type: functional
INS1 = assay: INS-1E survival protection against cytokine death – cell-based, luminescence, retest, dose response (AID 449756); assay type: functional; conditions: Rattus norvegicus;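 further: cell death triggered by IL-1 beta plus TNF-alpha plus IFN-gamma mixture; protective hits raise ATP signal compared with cytokine alone wells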
Cytochrome P450 1A2 = molecular target: T6, Cytochrome P450 1A2 (Homo sapiens, UniProt P05177);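 further: PubChem cytochrome P450 panel assay, CYP1A2 panel member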
T6 sequence (P05177 whole entry): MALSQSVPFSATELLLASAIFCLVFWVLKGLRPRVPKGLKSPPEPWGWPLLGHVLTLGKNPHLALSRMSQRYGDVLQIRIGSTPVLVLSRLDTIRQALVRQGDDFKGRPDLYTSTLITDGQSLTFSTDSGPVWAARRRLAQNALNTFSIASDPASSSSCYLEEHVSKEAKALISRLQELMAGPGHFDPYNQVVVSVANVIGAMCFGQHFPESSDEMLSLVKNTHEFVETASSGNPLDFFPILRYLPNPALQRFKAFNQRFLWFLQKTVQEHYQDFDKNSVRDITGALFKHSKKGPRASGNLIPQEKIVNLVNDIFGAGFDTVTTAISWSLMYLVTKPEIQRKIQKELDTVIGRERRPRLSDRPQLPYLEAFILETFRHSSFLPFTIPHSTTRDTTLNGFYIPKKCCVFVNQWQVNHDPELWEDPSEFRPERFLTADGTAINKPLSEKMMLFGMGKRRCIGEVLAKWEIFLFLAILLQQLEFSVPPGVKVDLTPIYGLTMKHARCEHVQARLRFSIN

Cytochrome P450 2C9 = Cytochrome P450 2C9 (Homo sapiens, UniProt P11712)
Chain of Cytochrome P450 2C9 (P11712 whole entry): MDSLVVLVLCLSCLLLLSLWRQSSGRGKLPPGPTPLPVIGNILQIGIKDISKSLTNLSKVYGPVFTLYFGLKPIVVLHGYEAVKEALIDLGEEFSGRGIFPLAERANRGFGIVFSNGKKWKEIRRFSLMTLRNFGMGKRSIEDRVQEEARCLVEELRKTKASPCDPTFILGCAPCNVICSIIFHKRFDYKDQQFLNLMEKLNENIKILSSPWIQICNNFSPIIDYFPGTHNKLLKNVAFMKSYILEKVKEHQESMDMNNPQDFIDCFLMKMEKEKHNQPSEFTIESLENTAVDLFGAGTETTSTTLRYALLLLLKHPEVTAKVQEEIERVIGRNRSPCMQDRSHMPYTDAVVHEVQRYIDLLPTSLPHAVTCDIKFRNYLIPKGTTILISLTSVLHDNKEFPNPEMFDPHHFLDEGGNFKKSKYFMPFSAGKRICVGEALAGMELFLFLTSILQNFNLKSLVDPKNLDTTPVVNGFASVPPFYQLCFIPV

T3 sequence (Q79MP6 whole entry): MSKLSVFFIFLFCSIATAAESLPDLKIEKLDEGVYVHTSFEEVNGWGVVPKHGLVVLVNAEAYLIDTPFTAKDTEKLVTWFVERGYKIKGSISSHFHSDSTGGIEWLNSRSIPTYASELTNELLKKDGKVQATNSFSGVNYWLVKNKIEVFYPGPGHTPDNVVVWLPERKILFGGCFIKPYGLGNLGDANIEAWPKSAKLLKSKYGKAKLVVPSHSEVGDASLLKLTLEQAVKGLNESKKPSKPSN
Chain of Mu-type opioid receptor (P35372 whole entry, the tested form may be a part): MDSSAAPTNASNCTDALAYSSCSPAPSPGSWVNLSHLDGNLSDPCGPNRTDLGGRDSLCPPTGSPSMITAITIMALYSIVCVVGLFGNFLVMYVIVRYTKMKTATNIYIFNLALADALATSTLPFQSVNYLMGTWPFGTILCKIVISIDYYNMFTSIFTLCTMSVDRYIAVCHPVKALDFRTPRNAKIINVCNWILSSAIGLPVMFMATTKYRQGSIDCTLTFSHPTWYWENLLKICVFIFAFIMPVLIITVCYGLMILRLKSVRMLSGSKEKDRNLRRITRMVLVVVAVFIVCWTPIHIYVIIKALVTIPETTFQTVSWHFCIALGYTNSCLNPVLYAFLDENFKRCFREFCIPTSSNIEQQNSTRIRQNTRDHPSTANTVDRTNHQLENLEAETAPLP
Chain of 5-hydroxytryptamine receptor 2A (P35363 whole entry): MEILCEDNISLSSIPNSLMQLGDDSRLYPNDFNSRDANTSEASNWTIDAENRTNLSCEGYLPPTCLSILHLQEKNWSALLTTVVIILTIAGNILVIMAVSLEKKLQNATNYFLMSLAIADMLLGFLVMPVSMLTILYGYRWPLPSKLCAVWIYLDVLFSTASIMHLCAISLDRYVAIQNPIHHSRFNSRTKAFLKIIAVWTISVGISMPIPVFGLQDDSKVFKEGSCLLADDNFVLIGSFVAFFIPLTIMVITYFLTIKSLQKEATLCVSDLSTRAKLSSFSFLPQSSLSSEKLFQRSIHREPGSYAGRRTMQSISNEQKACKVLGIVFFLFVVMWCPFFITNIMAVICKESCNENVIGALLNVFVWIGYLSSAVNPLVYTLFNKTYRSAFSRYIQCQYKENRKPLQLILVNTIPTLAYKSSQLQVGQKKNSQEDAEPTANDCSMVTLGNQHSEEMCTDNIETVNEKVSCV
Chain of Beta-lactamase (Salmonella choleraesuis (strain SC-B67), UniProt Q5J463) (Q5J463 whole entry): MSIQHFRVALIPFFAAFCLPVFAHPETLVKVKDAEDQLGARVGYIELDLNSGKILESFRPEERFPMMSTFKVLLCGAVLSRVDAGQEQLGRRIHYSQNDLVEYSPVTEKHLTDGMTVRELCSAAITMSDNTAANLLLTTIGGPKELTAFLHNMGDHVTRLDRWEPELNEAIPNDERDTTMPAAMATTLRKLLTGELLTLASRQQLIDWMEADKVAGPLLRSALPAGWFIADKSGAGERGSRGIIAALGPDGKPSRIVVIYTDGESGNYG
Chain of Beta-galactosidase (Q8VNN2 whole entry): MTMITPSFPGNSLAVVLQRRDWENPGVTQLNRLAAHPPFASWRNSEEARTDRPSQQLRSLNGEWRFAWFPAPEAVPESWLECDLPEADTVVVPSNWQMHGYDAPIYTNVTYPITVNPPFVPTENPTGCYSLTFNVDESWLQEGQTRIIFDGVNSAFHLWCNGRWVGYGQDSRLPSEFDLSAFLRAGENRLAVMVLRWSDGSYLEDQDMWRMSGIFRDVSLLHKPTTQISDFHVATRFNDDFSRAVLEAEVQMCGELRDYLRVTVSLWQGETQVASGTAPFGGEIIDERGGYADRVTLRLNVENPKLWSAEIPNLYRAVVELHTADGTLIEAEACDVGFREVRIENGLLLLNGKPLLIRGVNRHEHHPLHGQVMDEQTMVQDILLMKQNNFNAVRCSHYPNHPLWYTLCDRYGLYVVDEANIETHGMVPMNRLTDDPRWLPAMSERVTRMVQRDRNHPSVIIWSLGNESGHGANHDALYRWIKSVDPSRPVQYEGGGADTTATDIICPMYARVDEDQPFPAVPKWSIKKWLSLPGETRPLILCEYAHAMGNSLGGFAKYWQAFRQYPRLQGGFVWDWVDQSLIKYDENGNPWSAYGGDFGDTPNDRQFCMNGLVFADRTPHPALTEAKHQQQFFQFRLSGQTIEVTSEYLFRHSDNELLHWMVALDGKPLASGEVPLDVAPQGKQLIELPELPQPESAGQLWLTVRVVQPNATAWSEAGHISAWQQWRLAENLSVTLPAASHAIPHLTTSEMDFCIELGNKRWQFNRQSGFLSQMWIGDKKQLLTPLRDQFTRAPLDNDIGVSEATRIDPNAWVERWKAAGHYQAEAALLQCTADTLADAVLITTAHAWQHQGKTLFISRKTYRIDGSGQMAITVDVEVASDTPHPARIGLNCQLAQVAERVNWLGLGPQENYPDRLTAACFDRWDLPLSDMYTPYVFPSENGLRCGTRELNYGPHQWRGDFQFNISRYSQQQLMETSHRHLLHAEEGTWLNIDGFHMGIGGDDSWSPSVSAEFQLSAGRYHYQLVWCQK
Chain of Phospholipase A2 (P04054 whole entry): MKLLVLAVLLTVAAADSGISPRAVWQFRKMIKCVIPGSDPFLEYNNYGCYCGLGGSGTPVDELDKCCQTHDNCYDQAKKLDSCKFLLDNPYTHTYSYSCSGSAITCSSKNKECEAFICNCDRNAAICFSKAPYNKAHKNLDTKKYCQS
Chain of DNA repair and recombination protein RAD54-like (Q92698 whole entry): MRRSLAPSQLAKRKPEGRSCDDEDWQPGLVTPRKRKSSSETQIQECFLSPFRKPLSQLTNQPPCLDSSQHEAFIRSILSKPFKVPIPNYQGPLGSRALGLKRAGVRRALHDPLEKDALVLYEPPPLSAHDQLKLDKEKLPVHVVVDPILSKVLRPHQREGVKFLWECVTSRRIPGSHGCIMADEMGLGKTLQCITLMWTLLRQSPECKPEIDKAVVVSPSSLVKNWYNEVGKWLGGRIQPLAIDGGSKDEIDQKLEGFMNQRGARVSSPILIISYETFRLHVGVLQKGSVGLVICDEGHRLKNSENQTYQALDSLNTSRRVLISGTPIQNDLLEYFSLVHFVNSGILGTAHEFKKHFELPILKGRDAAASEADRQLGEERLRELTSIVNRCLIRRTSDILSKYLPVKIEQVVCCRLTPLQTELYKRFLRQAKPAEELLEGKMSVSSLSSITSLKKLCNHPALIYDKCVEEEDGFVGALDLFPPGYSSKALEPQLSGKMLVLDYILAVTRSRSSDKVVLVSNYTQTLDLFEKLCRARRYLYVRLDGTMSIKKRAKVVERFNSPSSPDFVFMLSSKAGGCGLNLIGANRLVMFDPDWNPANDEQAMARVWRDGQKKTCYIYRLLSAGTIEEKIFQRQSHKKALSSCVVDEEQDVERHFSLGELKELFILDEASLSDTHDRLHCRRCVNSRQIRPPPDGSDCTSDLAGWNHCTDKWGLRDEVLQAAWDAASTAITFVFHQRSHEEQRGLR

Structure (SMILES): CCCN1CCO[C@@H]2c3cc(O)ccc3OC[C@H]21
- EC50 [1]: 0.0216 µM (active)
- EC50 (Mu-type opioid receptor): 92.5 µM (inactive)

Structure (SMILES): CCC(=O)NC(=S)Nc1cccc(Cl)c1N1CCCCC1
- AC50 [2]: > 70 µM (inactive)
- AC50 [3]: 38.5 µM (active)
- AC50 [4]: 17.3 µM (active)
- AC50 [5]: 5.27 µM (active)
- IC50 (Phospholipase A2): 3.78 µM (active)
- IC50 (Cysteine protease ATG4B): 6.09 µM (active)
- AC50 [6]: 36.5 µM (active)

Structure (SMILES): COC(=O)c1ccc2nc(-c3cccc(N)c3)cn2c1
- AC50 [7]: 2.62 µM (active)
- EC50 [8]: > 60 µM (not active)
- IC50 [9]: > 0.834 µM (active)
- EC50 [10]: 6.89 µM (active)
- AC50 (HEK293): 2.21 µM (active)
- AC50 [11]: 3.22 µM (active)
- IC50 (cells [12]): > 67.5 µM (inactive)
- EC50 [13]: > 60 µM (not active)

Structure (SMILES): COc1ccc(C2c3c(-c4ccccc4O)n[nH]c3C(=O)N2CCc2ccc(OC)c(OC)c2)cc1 (stereo not drawn)
- AC50 [14]: 2.44 µM (active)
- AC50 [2]: 3.07 µM (active)
- AC50 [3]: 1.17 µM (active)
- AC50 [4]: 1.94 µM (active)
- AC50 [6]: 65.5 µM (active)

Structure (SMILES): O=C(c1ccc2ccccc2c1)N1CCN(S(=O)(=O)/C=C/c2ccccc2)CC1
- EC50 [15]: 1.1 µM (active)
- EC50 [16]: > 30 µM (not active)
- IC50 (Beta-galactosidase): > 80 µM (inactive)

Structure (SMILES): O=C(c1cc2ccccc2o1)N1CCN(S(=O)(=O)/C=C/c2ccccc2)CC1
- IC50 (Beta-galactosidase): > 80 µM (inactive)

Structure (SMILES): O=C(CSc1nnc(NC(=O)c2cc(Br)ccc2Cl)s1)NCC1CCCO1 (stereo not drawn)
- IC50 (Beta-lactamase [17]): > 59.6 µM (inactive)
- IC50 (Beta-lactamase [18]): > 59.6 µM (inactive)
- IC50 (Beta-lactamase [19]): > 59.6 µM (inactive)

Structure (SMILES): Cc1n[nH]c(O)c1C(c1ccc(-c2ccc(Cl)cc2)o1)c1c(C)n[nH]c1O
- AC50 [20]: 8.22 µM (active)
- IC50 [21]: 12.9 µM (active)
- IC50 [22]: 36.3 µM (active)

Structure (SMILES): CCCN1CN(CCc2ccccc2)CN=C1S
- EC50 (cells [23]): > 29.9 µM (inactive)
- IC50 (cells [24]): > 29.9 µM (inactive)

Structure (SMILES): NNC(=O)c1oc2nc(-c3cccs3)cc(-c3ccco3)c2c1N
- AC50 [25]: 16.6 µM (active)

Structure (SMILES): c1cnc(N2CCN(Cc3c[nH]c4ccccc34)CC2)nc1
- AC50 (INS1): 4.57 µM (active)
- EC50 [1]: 0.424 µM (active)
- EC50 (Mu-type opioid receptor): 92.5 µM (inactive)

Structure (SMILES): CCOC(=O)c1[nH]c(C(=O)O)c(CCC(=O)OC)c1C
- IC50 (Beta-lactamase [17]): > 59.6 µM (inactive)
- AC50 (Cytochrome P450 1A2): 0.251 µM (inconclusive)
- IC50 (Beta-lactamase [18]): 29.4 µM (inactive)
- AC50 (Cytochrome P450 2C9): 31.6 µM (inconclusive)
- IC50 (Beta-lactamase [19]): > 59.6 µM (inactive)
